In paper PMC7377474, “Preclinical characterization of CPL302-253, a selective inhibitor of PI3Kδ, as the candidate for the inhalatory treatment and prevention of Asthma” (PLoS ONE, 2020):

Experiments:
PI3Kδ [1] = target: T1, PI3Kδ (Homo sapiens, UniProt O00329); test: ADP-Glo Kinase Assay; format: biochemical
T1 construct: purchased Merck Millipore
Method: (§1) The potency and selectivity of CPL302-253 against different isotypes of class I PI3K were assessed using ADP-Glo Kinase Assay (Promega) according to manufacturer’s protocol. PI3Kα, PI3Kβ, PI3Kδ, PI3Kγ were purchased from Merck Millipore. The inhibition of examined kinases activity was evaluated by measuring their ability to converse ATP to ADP in the presence of decreasing doses of tested compound (from 400 μM to 0,00004 μM). Kinases were mixed with 1 mM PIP2:PS substrate (Phosphoinositol-4,5-bisphosphate (PIP2) lipid vesicles with phosphoserine (PS), Thermofisher Scientific) and 30 μM ATP in an assay buffer (50 mM HEPES pH 7.5,50 mM NaCl, 3 mM MgCl2, 25 μg/ml BSA). The mixture was incubated in the dark for 1 h at 25°C (PI3Kα and PI3Kδ) or at 30°C (PI3Kβ, PI3Kγ). Next ADP-Glo reagent 1 was added to stop the reaction and remove any remaining ATP. The samples were incubated for 40 min at 25°C. Subsequently the ADP-Glo reagent 2 was added and reactions were incubated for 40 min at 25°C. Finally, luminescence was assessed and the IC50 was calculated.
T1 sequence (O00329 whole entry): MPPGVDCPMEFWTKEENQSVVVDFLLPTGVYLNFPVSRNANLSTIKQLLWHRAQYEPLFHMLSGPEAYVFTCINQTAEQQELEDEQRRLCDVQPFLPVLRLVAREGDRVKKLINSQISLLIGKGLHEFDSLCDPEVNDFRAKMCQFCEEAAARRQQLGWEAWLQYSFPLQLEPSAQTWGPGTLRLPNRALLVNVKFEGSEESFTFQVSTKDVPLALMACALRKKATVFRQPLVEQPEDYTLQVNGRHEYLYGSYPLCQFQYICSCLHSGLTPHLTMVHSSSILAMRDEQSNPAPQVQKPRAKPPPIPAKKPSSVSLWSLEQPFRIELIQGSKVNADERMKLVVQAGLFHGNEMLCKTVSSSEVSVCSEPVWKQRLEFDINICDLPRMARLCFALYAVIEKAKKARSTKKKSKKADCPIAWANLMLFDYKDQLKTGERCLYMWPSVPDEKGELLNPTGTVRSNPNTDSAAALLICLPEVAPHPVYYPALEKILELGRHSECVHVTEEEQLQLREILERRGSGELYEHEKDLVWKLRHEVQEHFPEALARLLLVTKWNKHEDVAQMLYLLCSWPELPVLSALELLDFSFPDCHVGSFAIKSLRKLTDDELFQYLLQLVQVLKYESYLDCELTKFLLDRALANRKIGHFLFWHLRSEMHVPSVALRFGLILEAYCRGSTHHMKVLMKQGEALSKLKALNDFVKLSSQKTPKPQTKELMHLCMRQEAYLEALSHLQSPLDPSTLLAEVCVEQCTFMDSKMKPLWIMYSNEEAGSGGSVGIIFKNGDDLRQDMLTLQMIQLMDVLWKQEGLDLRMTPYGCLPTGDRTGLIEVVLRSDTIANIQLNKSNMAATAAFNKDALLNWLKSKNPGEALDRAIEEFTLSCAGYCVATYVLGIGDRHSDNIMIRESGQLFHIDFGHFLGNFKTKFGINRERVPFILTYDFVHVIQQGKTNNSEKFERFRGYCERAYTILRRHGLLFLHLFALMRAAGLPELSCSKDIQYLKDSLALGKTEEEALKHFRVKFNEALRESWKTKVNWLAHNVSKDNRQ
T1 sequence (P27986 whole entry partner): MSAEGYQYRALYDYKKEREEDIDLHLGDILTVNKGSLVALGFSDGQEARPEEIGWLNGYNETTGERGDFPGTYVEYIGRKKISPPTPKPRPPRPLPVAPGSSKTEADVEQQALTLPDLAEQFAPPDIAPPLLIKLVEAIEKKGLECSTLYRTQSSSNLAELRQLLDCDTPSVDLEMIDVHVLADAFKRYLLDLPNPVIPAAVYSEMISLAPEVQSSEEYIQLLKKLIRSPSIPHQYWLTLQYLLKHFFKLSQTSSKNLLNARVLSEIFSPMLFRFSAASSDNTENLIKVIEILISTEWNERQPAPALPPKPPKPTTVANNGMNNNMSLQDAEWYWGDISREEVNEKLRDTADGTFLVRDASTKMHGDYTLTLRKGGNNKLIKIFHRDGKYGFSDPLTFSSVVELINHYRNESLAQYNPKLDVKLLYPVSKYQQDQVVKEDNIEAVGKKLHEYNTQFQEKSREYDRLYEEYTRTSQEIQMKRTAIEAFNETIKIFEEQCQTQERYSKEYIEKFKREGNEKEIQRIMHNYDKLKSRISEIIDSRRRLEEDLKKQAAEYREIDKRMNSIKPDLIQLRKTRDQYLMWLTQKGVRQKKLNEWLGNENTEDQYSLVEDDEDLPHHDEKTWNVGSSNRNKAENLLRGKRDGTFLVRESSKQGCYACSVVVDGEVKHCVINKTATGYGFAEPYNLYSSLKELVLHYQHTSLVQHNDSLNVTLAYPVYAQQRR

PI3Kδ [2] = target: T2, PI3Kδ (Homo sapiens, UniProt O00329); test: KINOMEScan competitive binding assay, Kd
T2 construct: purchased Discoverex (KINOMEscan service)
Method: The inhibitor-kinase binding affinity was assessed in KINOMEscan™ assay (Discoverex) according to service provider’s protocol. In brief, in this binding assay the studied compound in solution is incubated with DNA-tagged kinase and kinase active-site directed ligand bound to the beads. The compound competes for binding to kinase with the immobilized ligand. After incubation beads are removed from the solution and kinase bound to ligand is quantified by qPCR. The strength of compound binding is determined based on its ability to block kinase-ligand binding. 11-point 3-fold serial dilution of CPL302-253 was used in order to determine its binding constants (Kd) against different isotypes of class I PI3K. The single concentration of CPL302-253 was used in order to determine its specificity in abroad panel of 468 human kinases. The measure of compounds affinity to each kinase in the panel was the percentage of kinase activity inhibition by tested ligand in comparison to the control.

[3] = tested on: CD19 B cells and PBMC stimulated with αIgM and TCR ligands; test: BioMAP profiling, BT system; format: cell-based, human
Method: BioMap Profiling study was performed by DiscovereX according to service provider’s protocol. In brief cultures or co-cultures of human primary cells were treated with sets of stimulators specific for cell subsets. […] The expression of biomarkers specific for each system was measured by ELISA and other techniques. The results are shown as log-transformed ratio of the biomarker readouts for the drug-treated sample to vehicle controls. The grey area parallel to the x-axis indicates the 95% significance region calculated based on historical vehicle controls. […]

hERG = target: T3, hERG (Homo sapiens, UniProt Q12809); format: cell-based; conditions: 10 μM
T3 construct: purchased DiscoverX (Eurofins) SafetyScan44
Method: SafetyScan44 assay was performed by DiscoverX according to service provider’s protocol.

[4] = Pharmacokinetics after intratracheal instillation; format: in vivo; conditions: mouse
Method: Female Balb/c mouse (20–25 g bodyweight) were purchased from Nofer Institute (Lodz, Poland). Animals were given 0.3 mg/kg or 1 mg/kg single dose of CPL302-253 by intratracheal instillation. The compound was suspended in 0.2% DMSO in saline. 5 animals per time-point were sacrificed 10 min, 30 min, 1 h, 2 h, 4 h, 7 h and 12 h after compound administration. The blood was collected by heart puncture to K2EDTA containing tubes and plasma samples were prepared by centrifugation. The Bronchoalveolar Lavage Fluid (BALF) was collected by flushing the lungs 2 times with 1 ml of saline. The lungs were homogenized in 10% DMSO solution in water. 3ml of the solution were used for 1 g of lung tissue. The samples were purified using acetonitrile and concentration of CPL302-253 was measured by LC-MS/MS with internal standard. The concentration of the compound is given per ml of plasma and BALF or g of lung tissue.
LC-MS analysis of PK samples was performed using 1290 Infinity II UPLC (Agilent) with 6460 Triple Quad MS (Agilent) in the positive mode and MRM mode. […] Samples were eluted using a timed, linear gradient from 10% B at 0.3 min to 95% B at 1.5 min, then back to 10% at 2.5 min. The column was equilibrated for up to 5 min. The flow rate was 0.4 mL/min. The injection volume was 5 μL. Calibration curve was prepared in the range from 1 ng/mL to 2000 ng/mL by spiking 45 μL of plasma with 5 μL of concentrated standard solution. All plasma based standard solutions and studied samples (50 μL) were subsequently extracted with 150 μL of acetonitrile containing donepezil as internal standard and centrifuged to provide supernatant ready for analysis.

PI3Kα = PI3Kα (Homo sapiens, UniProt P42336); test: ADP-Glo Kinase Assay; format: biochemical; design: purchased Merck Millipore
Method: as §1

PI3Kβ = PI3Kβ (Homo sapiens, UniProt P42338); test: ADP-Glo Kinase Assay; format: biochemical; design: purchased Merck Millipore
Method: as §1

PI3Kγ = PI3Kγ (Homo sapiens, UniProt P48736); test: ADP-Glo Kinase Assay; format: biochemical; design: purchased Merck Millipore
Method: as §1

Sequence of PI3Kα (P42336 whole entry): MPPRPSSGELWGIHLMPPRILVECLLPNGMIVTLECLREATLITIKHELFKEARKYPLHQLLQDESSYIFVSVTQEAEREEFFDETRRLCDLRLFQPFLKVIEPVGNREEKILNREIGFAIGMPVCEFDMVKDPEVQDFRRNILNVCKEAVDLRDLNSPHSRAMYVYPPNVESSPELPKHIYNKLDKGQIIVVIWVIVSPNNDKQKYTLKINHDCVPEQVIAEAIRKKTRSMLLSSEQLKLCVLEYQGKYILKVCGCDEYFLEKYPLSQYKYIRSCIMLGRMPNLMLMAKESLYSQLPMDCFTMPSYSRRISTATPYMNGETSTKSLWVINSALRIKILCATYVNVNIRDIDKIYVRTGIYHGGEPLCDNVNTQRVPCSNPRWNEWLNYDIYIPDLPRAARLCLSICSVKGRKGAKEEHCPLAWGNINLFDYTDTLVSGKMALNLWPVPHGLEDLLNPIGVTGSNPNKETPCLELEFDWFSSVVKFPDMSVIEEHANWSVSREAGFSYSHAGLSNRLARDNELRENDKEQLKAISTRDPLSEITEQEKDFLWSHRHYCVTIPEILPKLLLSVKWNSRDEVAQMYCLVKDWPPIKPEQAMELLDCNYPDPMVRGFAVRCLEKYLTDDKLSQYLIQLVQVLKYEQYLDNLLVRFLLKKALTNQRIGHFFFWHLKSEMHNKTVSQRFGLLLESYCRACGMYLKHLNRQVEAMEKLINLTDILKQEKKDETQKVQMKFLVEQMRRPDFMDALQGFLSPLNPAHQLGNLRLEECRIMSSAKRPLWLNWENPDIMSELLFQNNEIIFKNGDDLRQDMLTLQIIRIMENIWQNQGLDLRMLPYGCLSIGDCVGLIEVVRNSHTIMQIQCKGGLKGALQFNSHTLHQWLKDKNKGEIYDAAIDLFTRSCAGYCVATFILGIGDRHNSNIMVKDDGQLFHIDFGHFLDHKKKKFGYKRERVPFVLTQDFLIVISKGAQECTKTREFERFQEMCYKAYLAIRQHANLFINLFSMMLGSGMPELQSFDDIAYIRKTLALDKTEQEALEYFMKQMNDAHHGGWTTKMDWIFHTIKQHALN
Sequence of PI3Kα (P27986 whole entry partner): as the sequence (P27986 whole entry partner) above
Sequence of PI3Kβ (P42338 whole entry): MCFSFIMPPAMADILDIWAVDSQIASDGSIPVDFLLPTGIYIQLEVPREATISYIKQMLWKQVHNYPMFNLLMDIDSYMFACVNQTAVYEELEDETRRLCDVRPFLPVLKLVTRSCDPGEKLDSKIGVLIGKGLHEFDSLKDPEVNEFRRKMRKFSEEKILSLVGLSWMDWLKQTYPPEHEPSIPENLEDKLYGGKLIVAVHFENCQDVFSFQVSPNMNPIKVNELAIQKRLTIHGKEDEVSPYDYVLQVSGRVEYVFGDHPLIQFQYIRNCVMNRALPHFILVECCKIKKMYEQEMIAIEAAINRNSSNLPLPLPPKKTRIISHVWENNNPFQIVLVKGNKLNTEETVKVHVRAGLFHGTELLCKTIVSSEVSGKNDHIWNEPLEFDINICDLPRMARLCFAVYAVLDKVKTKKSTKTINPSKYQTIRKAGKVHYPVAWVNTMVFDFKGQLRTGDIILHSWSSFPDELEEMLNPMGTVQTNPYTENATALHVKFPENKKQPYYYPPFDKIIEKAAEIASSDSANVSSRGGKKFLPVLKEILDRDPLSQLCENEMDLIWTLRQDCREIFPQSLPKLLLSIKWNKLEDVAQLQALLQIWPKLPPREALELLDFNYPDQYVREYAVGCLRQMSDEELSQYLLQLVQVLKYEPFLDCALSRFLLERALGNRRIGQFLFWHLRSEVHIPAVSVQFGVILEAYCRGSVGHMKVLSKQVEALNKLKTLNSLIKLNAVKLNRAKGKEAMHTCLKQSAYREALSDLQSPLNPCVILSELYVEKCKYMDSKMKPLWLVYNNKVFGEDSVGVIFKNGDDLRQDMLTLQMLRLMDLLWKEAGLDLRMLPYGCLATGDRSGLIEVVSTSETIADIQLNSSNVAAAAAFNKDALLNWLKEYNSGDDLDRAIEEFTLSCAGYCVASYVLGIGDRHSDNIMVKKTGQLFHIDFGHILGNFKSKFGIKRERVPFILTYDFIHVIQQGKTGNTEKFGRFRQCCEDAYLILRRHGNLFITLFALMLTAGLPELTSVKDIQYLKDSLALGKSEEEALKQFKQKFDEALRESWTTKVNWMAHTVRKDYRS
Sequence of PI3Kβ (P27986 whole entry partner): as the sequence (P27986 whole entry partner) above
Sequence of PI3Kγ (P48736 whole entry): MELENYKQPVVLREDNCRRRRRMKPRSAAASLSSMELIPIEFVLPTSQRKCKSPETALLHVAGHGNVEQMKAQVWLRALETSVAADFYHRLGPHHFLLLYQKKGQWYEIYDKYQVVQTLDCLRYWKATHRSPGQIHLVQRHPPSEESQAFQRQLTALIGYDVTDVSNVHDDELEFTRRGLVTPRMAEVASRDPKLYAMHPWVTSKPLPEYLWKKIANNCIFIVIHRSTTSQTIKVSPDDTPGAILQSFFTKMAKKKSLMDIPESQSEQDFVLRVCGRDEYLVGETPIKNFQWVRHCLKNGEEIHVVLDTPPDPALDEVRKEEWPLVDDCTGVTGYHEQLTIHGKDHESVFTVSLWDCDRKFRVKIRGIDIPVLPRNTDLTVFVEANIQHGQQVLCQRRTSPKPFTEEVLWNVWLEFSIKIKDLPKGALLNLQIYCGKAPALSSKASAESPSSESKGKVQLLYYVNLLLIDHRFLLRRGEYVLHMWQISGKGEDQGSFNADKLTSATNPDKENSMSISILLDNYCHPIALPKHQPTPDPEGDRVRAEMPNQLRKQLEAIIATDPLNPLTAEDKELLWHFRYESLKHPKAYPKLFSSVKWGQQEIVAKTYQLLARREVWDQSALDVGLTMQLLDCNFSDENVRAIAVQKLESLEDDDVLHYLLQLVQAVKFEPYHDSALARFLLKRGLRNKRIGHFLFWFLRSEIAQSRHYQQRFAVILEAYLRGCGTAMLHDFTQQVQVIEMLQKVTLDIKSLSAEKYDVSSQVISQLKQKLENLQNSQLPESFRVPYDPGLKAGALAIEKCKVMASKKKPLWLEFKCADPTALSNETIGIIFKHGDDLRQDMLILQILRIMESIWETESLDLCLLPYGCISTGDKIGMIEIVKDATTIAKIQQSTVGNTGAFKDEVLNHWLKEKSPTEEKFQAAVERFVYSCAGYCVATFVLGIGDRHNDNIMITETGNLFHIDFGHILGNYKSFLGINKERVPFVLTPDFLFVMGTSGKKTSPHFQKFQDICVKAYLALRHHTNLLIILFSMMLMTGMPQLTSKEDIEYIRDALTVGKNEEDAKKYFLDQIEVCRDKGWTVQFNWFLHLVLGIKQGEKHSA

CC(C)(C)N1CCN(Cc2cc3nc(-c4cncc5[nH]ccc45)cc(N4CCOCC4)n3n2)CC1 [CPL302-253]
IC50 (PI3Kδ [1]): 0.0122 µM
Kd (PI3Kδ [2]): 0.00085 µM
expression of IL-2, IL-6, IL-17 and TNFα in BT system [3]: inhibits the expression of all of listed markers in BT system
proliferation of B cells [3]: blocked proliferation of B cells
% Response hERG Blocker (hERG): -2.7%
concentration in Plasma, single animals ([4]; 0.3 mg/kg intratracheal, time 2 h): 16.45
concentration in the blood compared with the lungs ([4]; in vivo): two orders of magnitude lower
distribution after intratracheal administration ([4]; in vivo): exclusively accumulated in the lung tissue and BAL with minor penetration to the circulation
IC50 (PI3Kα): 4.52 µM
Ratio to δ (PI3Kα; IC50 of isoform α to δ): 371
IC50 (PI3Kβ): 9.58 µM
Ratio to δ (PI3Kβ; IC50 of isoform β to δ): 785
IC50 (PI3Kγ): 45.4 µM
Ratio to δ (PI3Kγ; IC50 of isoform γ to δ): 3725
